Target: human GPR17 short isoform (Homo sapiens, UniProt Q13304)
Experiment: GPR17 cAMP assay (hGPR17 cAMP)
Type: cell-based
Conditions: CHO-K1 cells stably expressing human GPR17 short isoform; antagonist mode with EC80 of MDL29,951, forskolin 15 μM, TR-FRET cAMP
Description: GPR17 cAMP Assay Protocol:
CHO-K1 cells stably expressing vector containing untagged human GPR17 short isoform (Roche) were cultured at 37° C./5% CO2 in DMEM (Dulbecco's Modified Eagle Medium):F-12 (1:1) supplemented with 10% foetal bovine serum and 400 μg/ml Geneticin.
Changes in intracellular cyclic adenosine monophosphate (cAMP) levels were quantified using the Nano-TRF Detection Assay kit (Roche Diagnostics, Cat. No. 05214386001). This assay allows for direct cAMP quantification in a homogeneous solution. cAMP is detected based on time-resolved fluorescence energy transfer (TR-FRET) and competitive binding of ruthenylated cAMP and endogenous cAMP to an anti-cAMP monoclonal antibody labeled with AlexaFluor-700. The Ruthenium complex serves as the FRET donor and transfers energy to AlexaFluor-700. The FRET signal is inversely proportional to the cAMP concentration.
CHO-GPR17S cells were detached with Accutase and resuspended in assay buffer consisting of Hank's Balanced Salt Solution (HBSS), 10 mM HEPES (4-(2-hydroxyethyl) piperazine-1-ethanesulfonic acid solution) and 0.1% bovine serum albumin (pH 7.4). The cells were seeded in black 384-well plates (Corning) at a density of 10'000 cells/20 μl assay buffer until the addition of compounds.
Test antagonist compounds were serially diluted in dimethyl sulfoxide (DMSO) and spotted in 384-well plates. The compounds were then diluted in HBSS buffer supplemented with an EC80 concentration of MDL29,951 (3-(2-Carboxy-4,6-dichloroindol-3-yl)propionic acid) (GPR17 agonist) plus 3-Isobutyl-1-methylxanthine (IBMX) (0.5 mM final concentration) and added to the cells at room temperature. Forskolin (15 μM final concentration) was added 5 minutes after the test compounds and the cells were incubated at room temperature for 30 minutes. The assay was stopped by adding cAMP detection mix (containing detergents for cell lysis) for 90 minutes at room temperature.
Cellular cAMP was measured using a Paradigm reader (Molecular Devices). The raw data was used to calculate the FRET signal based on the assay's P-factor as per cAMP kit instructions. The data was normalized to the maximal activity of a reference antagonist and dose response curves were fitted to the percent activity of the test compounds using a sigmoidal dose response model (Genedata Screener).

Sequence of human GPR17 short isoform (Q13304 29-367): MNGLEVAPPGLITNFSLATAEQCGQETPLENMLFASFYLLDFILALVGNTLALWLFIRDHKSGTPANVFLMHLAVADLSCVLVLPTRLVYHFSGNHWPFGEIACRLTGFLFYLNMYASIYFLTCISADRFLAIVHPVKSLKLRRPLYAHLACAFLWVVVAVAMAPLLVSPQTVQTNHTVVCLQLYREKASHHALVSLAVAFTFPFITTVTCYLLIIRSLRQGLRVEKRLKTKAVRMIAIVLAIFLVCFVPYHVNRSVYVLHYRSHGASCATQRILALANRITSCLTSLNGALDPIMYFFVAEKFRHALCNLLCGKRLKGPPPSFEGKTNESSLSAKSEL

COc1nc(NS(=O)(=O)c2c[nH]c(-c3ccccc3)c2)nc(OC)c1OC(F)F [Example 2, N-[5-(difluoromethoxy)-4,6-dimethoxy-pyrimidin-2-yl]-5-phenyl-1H-pyrrole-3-sulfonamide]
IC50: 478 nM

COc1nc(NS(=O)(=O)c2c[nH]c(-c3ccccc3)c2)nc(OC)c1OCCF [Example 3, N-[5-(2-fluoroethoxy)-4,6-dimethoxy-pyrimidin-2-yl]-5-phenyl-1H-pyrrole-3-sulfonamide]
IC50: 73 nM

COc1nc(NS(=O)(=O)c2c[nH]c(-c3nccs3)c2)nc(OC)c1OCC(F)F [Example 4, N-[5-(2,2-difluoroethoxy)-4,6-dimethoxy-pyrimidin-2-yl]-5-thiazol-2-yl-1H-pyrrole-3-sulfonamide]
IC50: 500 nM

COc1nc(NS(=O)(=O)c2c[nH]c(-c3ncccc3F)c2)nc(OC)c1OC(F)F [Example 5, N-[5-(difluoromethoxy)-4,6-dimethoxy-pyrimidin-2-yl]-5-(3-fluoro-2-pyridyl)-1H-pyrrole-3-sulfonamide]
IC50: 325 nM

COc1nc(NS(=O)(=O)c2c[nH]c(-c3ncccc3F)c2)nc(OC)c1CC(F)F [Example 6, N-[5-(2,2-difluoroethyl)-4,6-dimethoxy-pyrimidin-2-yl]-5-(3-fluoro-2-pyridyl)-1H-pyrrole-3-sulfonamide]
IC50: 107 nM

COc1nc(NS(=O)(=O)c2c[nH]c(-c3ncccc3F)c2)nc(OC)c1OCC(F)F [Example 8, N-[5-(2,2-difluoroethoxy)-4,6-dimethoxy-pyrimidin-2-yl]-5-(3-fluoro-2-pyridyl)-1H-pyrrole-3-sulfonamide]
IC50: 99 nM

COc1nc(NS(=O)(=O)c2c[nH]c(-c3nccs3)c2)ncc1OCC(F)F [Example 9, N-[5-(2,2-difluoroethoxy)-4-methoxy-pyrimidin-2-yl]-5-thiazol-2-yl-1H-pyrrole-3-sulfonamide]
IC50: 697 nM

COc1nc(NS(=O)(=O)c2c[nH]c(-c3nccs3)c2)nc(OC)c1CCC#N [Example 10, N-[5-(2-cyanoethyl)-4,6-dimethoxy-pyrimidin-2-yl]-5-thiazol-2-yl-1H-pyrrole-3-sulfonamide]
IC50: 69 nM

COc1nc(NS(=O)(=O)c2c[nH]c(-c3ccsn3)c2)nc(OC)c1OCC(F)F [Example 11, N-[5-(2,2-difluoroethoxy)-4,6-dimethoxy-pyrimidin-2-yl]-5-isothiazol-3-yl-1H-pyrrole-3-sulfonamide]
IC50: 142 nM

COc1nc(NS(=O)(=O)c2c[nH]c(-c3ccccc3)c2)nc(OC)c1CC(F)F [Example 12, N-[5-(2,2-difluoroethyl)-4,6-dimethoxy-pyrimidin-2-yl]-5-phenyl-1H-pyrrole-3-sulfonamide]
IC50: 169 nM

COc1nc(NS(=O)(=O)c2c[nH]c(-c3cscn3)c2)nc(OC)c1CC(F)F [Example 15, N-[5-(2,2-difluoroethyl)-4,6-dimethoxy-pyrimidin-2-yl]-5-thiazol-4-yl-1H-pyrrole-3-sulfonamide]
IC50: 661 nM

COc1nc(NS(=O)(=O)c2c[nH]c(-c3cscn3)c2)nc(OC)c1OC(F)F [Example 16, N-[5-(difluoromethoxy)-4,6-dimethoxy-pyrimidin-2-yl]-5-thiazol-4-yl-1H-pyrrole-3-sulfonamide]
IC50: 2270 nM

COc1nc(NS(=O)(=O)c2c[nH]c(-c3ccccn3)c2)nc(OC)c1CC(F)F [Example 17, N-[5-(2,2-difluoroethyl)-4,6-dimethoxy-pyrimidin-2-yl]-5-(2-pyridyl)-1H-pyrrole-3-sulfonamide]
IC50: 133 nM

COc1nc(NS(=O)(=O)c2c[nH]c(-c3ccccn3)c2)nc(OC)c1OC(F)F [Example 18, N-[5-(difluoromethoxy)-4,6-dimethoxy-pyrimidin-2-yl]-5-(2-pyridyl)-1H-pyrrole-3-sulfonamide]
IC50: 344 nM

COc1nc(NS(=O)(=O)c2c[nH]c(-c3ccccn3)c2)nc(OC)c1OCC(F)F [Example 19, N-[5-(2,2-difluoroethoxy)-4,6-dimethoxy-pyrimidin-2-yl]-5-(2-pyridyl)-1H-pyrrole-3-sulfonamide]
IC50: 182 nM

COc1nc(NS(=O)(=O)c2c[nH]c(-c3nc(C)cs3)c2)nc(OC)c1CC(F)F [Example 20, N-[5-(2,2-difluoroethyl)-4,6-dimethoxy-pyrimidin-2-yl]-5-(4-methylthiazol-2-yl)-1H-pyrrole-3-sulfonamide]
IC50: 198 nM

COc1nc(NS(=O)(=O)c2c[nH]cc2Cc2ccccc2)nc(OC)c1CC(F)F [Example 21, 4-benzyl-N-[5-(2,2-difluoroethyl)-4,6-dimethoxy-pyrimidin-2-yl]-1H-pyrrole-3-sulfonamide]
IC50: 635 nM

COc1nc(NS(=O)(=O)c2c[nH]cc2Cc2ccccc2)nc(OC)c1OC(F)F [Example 22, 4-benzyl-N-[5-(difluoromethoxy)-4,6-dimethoxy-pyrimidin-2-yl]-1H-pyrrole-3-sulfonamide]
IC50: 2260 nM

COc1nc(NS(=O)(=O)c2c[nH]c(-c3ncccc3F)c2)nc(OC)c1CCC#N [Example 23, N-[5-(2-cyanoethyl)-4,6-dimethoxy-pyrimidin-2-yl]-5-(3-fluoro-2-pyridyl)-1H-pyrrole-3-sulfonamide]
IC50: 45 nM

COc1nc(NS(=O)(=O)c2c[nH]c(-c3ncccc3F)c2)ncc1CC(F)F [Example 24, N-[5-(2,2-difluoroethyl)-4-methoxy-pyrimidin-2-yl]-5-(3-fluoro-2-pyridyl)-1H-pyrrole-3-sulfonamide]
IC50: 331 nM

COc1nc(NS(=O)(=O)c2c[nH]c(-c3cscn3)c2)nc(OC)c1OCCF [Example 25, N-[5-(2-fluoroethoxy)-4,6-dimethoxy-pyrimidin-2-yl]-5-thiazol-4-yl-1H-pyrrole-3-sulfonamide]
IC50: 916 nM

COc1nc(NS(=O)(=O)c2c[nH]c(-c3cscn3)c2)nc(OC)c1OCC(F)F [Example 26, N-[5-(2,2-difluoroethoxy)-4,6-dimethoxy-pyrimidin-2-yl]-5-thiazol-4-yl-1H-pyrrole-3-sulfonamide]
IC50: 724 nM

COc1nc(NS(=O)(=O)c2c[nH]c(-c3ccccn3)c2)nc(OC)c1OCCF [Example 27, N-[5-(2-fluoroethoxy)-4,6-dimethoxy-pyrimidin-2-yl]-5-(2-pyridyl)-1H-pyrrole-3-sulfonamide]
IC50: 127 nM

COc1nc(NS(=O)(=O)c2c[nH]cc2Cc2ccccc2)nc(OC)c1OCCF [Example 28, 4-benzyl-N-[5-(2-fluoroethoxy)-4,6-dimethoxy-pyrimidin-2-yl]-1H-pyrrole-3-sulfonamide]
IC50: 1080 nM

[2H]C([2H])(c1cccc(F)c1)c1c[nH]cc1S(=O)(=O)Nc1nc(OC)c(OCC(F)F)c(OC)n1 [Example 29, 4-[dideuterio-(3-fluorophenyl)methyl]-N-[5-(2,2-difluoroethoxy)-4,6-dimethoxy-pyrimidin-2-yl]-1H-pyrrole-3-sulfonamide]
IC50: 964 nM

COc1nc(NS(=O)(=O)c2c[nH]cc2Cc2ccccc2)nc(OC)c1OCC(F)F [Example 30, 4-benzyl-N-[5-(2,2-difluoroethoxy)-4,6-dimethoxy-pyrimidin-2-yl]-1H-pyrrole-3-sulfonamide]
IC50: 1860 nM

COc1nc(NS(=O)(=O)c2c[nH]c(-c3nc(C)cs3)c2)nc(OC)c1OCCF [Example 31, N-[5-(2-fluoroethoxy)-4,6-dimethoxy-pyrimidin-2-yl]-5-(4-methylthiazol-2-yl)-1H-pyrrole-3-sulfonamide]
IC50: 222 nM
